Measurements reported in patent US20230263822A1, “MODULATION OF FACTOR 11 EXPRESSION” (Ionis Pharmaceuticals, Inc., priority 2008, published 2023).
pIC50: −log10 of the molar value. Strand notation (5' to 3'): a small letter for the sugar, then the base; units joined by * are phosphorothioate-linked, units joined directly phosphodiester-linked; [ ] holds rarer units or linkages, { } end groups; capitals alone tell only the bases. e = 2'-O-(2-methoxyethyl) (MOE); [5mC] = 5-methylcytosine; d = 2'-deoxy (DNA)

Columns and labels:
Type in all cases: cell-based
human Factor 11 mRNA [1] = assay: Antisense inhibition of human Factor 11 in HepG2 cells, lipofectin, 75 nM (Example 1); conditions: 75 nM antisense oligonucleotide, ~24 h, relative to untreated control cells
Outline: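 HepG2 cells transfected via lipofectin with 75 nM antisense oligonucleotide (5-10-5 MOE gapmers, 20-mers, phosphorothioate, 5-methylcytidines), treated ~24 h. Factor 11 mRNA quantified by real-time PCR, normalised to RIBOGREEN total RNA; percent inhibition versus untreated cells.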

human Factor 11 mRNA [2] = assay: Antisense inhibition of human Factor 11 in HepG2 cells by microwalk gapmers, lipofectin, 75 nM (Example 3)
Outline: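 HepG2 cells (10,000/well) were transfected via lipofectin with 75 nM 20-mer MOE gapmers (phosphorothioate, 5-methyl-C) for about 24 h. Factor 11 mRNA was measured by qRT-PCR, normalized to RIBOGREEN total RNA, and given as percent inhibition versus untreated cells.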

human Factor 11 mRNA [3] = assay: Dose-dependent inhibition of human Factor 11 in HepG2 cells, lipofectin 9.375-75 nM (Example 4)
Experimental: (§1) Cells were plated at a density of 10,000 cells per well and transfected using lipofectin reagent with 9.375 nM, 18.75 nM, 37.5 nM and 75 nM concentrations of antisense oligonucleotide, as specified in Table 9. After a treatment period of approximately 16 hours, RNA was isolated from the cells and Factor 11 mRNA levels were measured by quantitative real-time PCR. Human Factor 11 primer probe set RTS 2966 was used to measure mRNA levels. Factor 11 mRNA levels were adjusted according to total RNA content, as measured by RIBOGREEN. Results are presented as percent inhibition of Factor 11, relative to untreated control cells.

human Factor 11 mRNA [4] = assay: Dose-dependent inhibition of human Factor 11 in HepG2 cells, electroporation 0.7-20 uM (Example 4)
Experimental: as §1, with “The gapmers were also transfected via electroporation and their dose dependent inhibition of human Factor 11 mRNA was measured. Cells” for “Cells”, “20,000” for “10,000”, “via electroporation” for “using lipofectin reagent”, “0.7 μM, 2.2 μM, 6.7 μM,” for “9.375 nM, 18.75 nM, 37.5 nM”, “20 μM” for “75 nM”, “10.” for “9.”

[5] = gapmers targeted to SEQ ID NO: 1
[6] = gapmers targeted to SEQ ID NO: 2

Substance | % inhibition (human Factor 11 mRNA [1]; [6]) | other results
412204 (antisense eT*eT*e[5mC]*eA*eT*dG*dT*d[5mC]*dT*dA*dG*dG*dT*d[5mC]*d[5mC]*eA*e[5mC]*eA*eT*eA) [compound 412204] | – | % inhibition (human Factor 11 mRNA [1]; [5]): 74%; % inhibition (human Factor 11 mRNA [2]; HepG2, lipofectin, ~24 h, gapmers targeted to nucleobases 656 to 704 of SEQ ID NO: 1): 76%
412215 (antisense eA*eT*eT*e[5mC]*eT*dT*dT*dG*dG*dG*d[5mC]*d[5mC]*dA*dT*dT*e[5mC]*e[5mC]*eT*eG*eG) [compound 412215] | – | % inhibition (human Factor 11 mRNA [1]; [5]): 81%; % inhibition (human Factor 11 mRNA [2]; HepG2 cells, lipofectin, gapmers targeted to nucleobases 1062 to 1091 of SEQ ID NO: 1): 82%
413474 (antisense eA*eG*e[5mC]*eA*eA*d[5mC]*d[5mC]*dG*dG*dG*dA*dT*dG*dA*dT*eG*eA*eG*eT*eG) [compound 413474] | – | % inhibition (human Factor 11 mRNA [1]; [5]): 84%; % inhibition (human Factor 11 mRNA [2]; HepG2 cells, lipofectin, gapmers targeted to nucleobases 1018 to 1042 of SEQ ID NO: 1): 93%; pIC50 (human Factor 11 mRNA [3]): 7.55; percent inhibition of Factor 11 at 9.375 nM (human Factor 11 mRNA [3]; 9.375 nM, relative to untreated control cells): 29%; percent inhibition of Factor 11 at 18.75 nM (human Factor 11 mRNA [3]; 18.75 nM, relative to untreated control cells): 44%; percent inhibition of Factor 11 at 37.5 nM (human Factor 11 mRNA [3]; 37.5 nM, relative to untreated control cells): 57%; percent inhibition of Factor 11 at 75 nM (human Factor 11 mRNA [3]; 75 nM, relative to untreated control cells): 67%; pIC50 (human Factor 11 mRNA [4]): 5.16; percent inhibition of Factor 11 at 0.7 μM (human Factor 11 mRNA [4]; 0.7 μM, relative to untreated control cells): 0%; percent inhibition of Factor 11 at 2.2 μM (human Factor 11 mRNA [4]; 2.2 μM, relative to untreated control cells): 5%; percent inhibition of Factor 11 at 6.7 μM (human Factor 11 mRNA [4]; 6.7 μM, relative to untreated control cells): 52%; percent inhibition of Factor 11 at 20 μM (human Factor 11 mRNA [4]; 20 μM, relative to untreated control cells): 81%
413506 (antisense eA*eT*eG*eG*eA*dA*dT*dT*dG*dT*dG*d[5mC]*dT*dT*dA*eT*eG*eA*eG*eT) [compound 413506] | 57% | –
413507 (antisense eT*eT*eT*e[5mC]*eA*dA*dG*d[5mC]*dT*d[5mC]*dA*dG*dG*dA*dT*eG*eG*eG*eA*eA) [compound 413507] | 55% | –
413508 (antisense eG*eT*eT*eG*eG*dT*dA*dA*dA*dA*dT*dG*d[5mC]*dA*dA*e[5mC]*e[5mC]*eA*eA*eA) [compound 413508] | 64% | –
413509 (antisense eT*e[5mC]*eA*eG*eG*dA*d[5mC]*dA*d[5mC]*dA*dA*dG*dT*dA*dA*eA*e[5mC]*e[5mC]*eT*eG) [compound 413509] | 66% | –
413510 (antisense eT*eG*e[5mC]*eA*eA*dG*d[5mC]*dT*dG*dG*dA*dA*dA*dT*dA*eA*eA*eA*eG*e[5mC]) [compound 413510] | 17% | –
413511 (antisense eT*eG*e[5mC]*e[5mC]*eA*dA*dT*dT*dT*dA*dA*dA*dA*dG*dT*eG*eT*eA*eG*e[5mC]) [compound 413511] | 43% | –
413512 (antisense eA*eT*eA*eT*eT*dT*d[5mC]*dA*dA*dA*dA*dT*d[5mC]*d[5mC]*dA*eG*eT*eA*eT*eG) [compound 413512] | 39% | –
413513 (antisense eT*eT*e[5mC]*eT*eG*dA*dA*dT*dA*dT*dA*d[5mC]*dA*dA*dA*eT*eT*eA*eA*eT) [compound 413513] | 27% | –
413514 (antisense eT*eT*eT*eA*e[5mC]*dT*dA*dT*dG*dA*dA*dA*dA*dT*d[5mC]*eT*eA*eA*eA*eT) [compound 413514] | 5% | –
413515 (antisense eG*eG*eT*eA*eT*d[5mC]*d[5mC]*dT*dG*dA*dG*dT*dG*dA*dG*eA*eT*e[5mC]*eT*eA) [compound 413515] | 36% | –
413516 (antisense e[5mC]*e[5mC]*eA*eG*e[5mC]*dT*dA*dT*d[5mC]*dA*dG*dG*dA*dA*dA*eA*eT*eT*e[5mC]*e[5mC]) [compound 413516] | 50% | –
413517 (antisense eA*eA*eA*eG*e[5mC]*dT*dA*dT*dT*dG*dG*dA*dG*dA*d[5mC]*eT*e[5mC]*eA*eG*eA) [compound 413517] | 51% | –
413518 (antisense eA*eT*eG*eG*eA*dA*dT*d[5mC]*dT*d[5mC]*dT*dT*d[5mC]*dA*dT*eT*eT*e[5mC]*eA*eT) [compound 413518] | 49% | –
413519 (antisense eA*eT*eG*eG*eA*dG*dA*d[5mC]*dA*dT*dT*d[5mC]*dA*dT*dT*eT*e[5mC]*e[5mC]*eA*e[5mC]) [compound 413519] | 59% | –
413520 (antisense eG*e[5mC]*eT*e[5mC]*eT*dG*dA*dG*dA*dG*dT*dT*d[5mC]*d[5mC]*dA*eA*eT*eT*e[5mC]*eA) [compound 413520] | 52% | –

Substance | % inhibition (human Factor 11 mRNA [1]; [6]) | other results
413521 (antisense e[5mC]*eT*eG*eG*eG*dA*dA*dG*dG*dT*dG*dA*dA*dT*dT*eT*eT*eT*eA*eG) [compound 413521] | 62% | –
413522 (antisense eT*e[5mC]*eA*eA*eG*dA*dG*dT*d[5mC]*dT*dT*d[5mC]*dA*dT*dG*e[5mC]*eT*eA*e[5mC]*e[5mC]) [compound 413522] | 42% | –
413523 (antisense eT*e[5mC]*eA*eG*eT*dT*dT*dA*d[5mC]*d[5mC]*dT*dG*dG*dG*dA*eT*eG*e[5mC]*eT*eG) [compound 413523] | 61% | –
413524 (antisense eG*eA*e[5mC]*eA*eT*dT*dA*dT*dA*d[5mC]*dT*d[5mC]*dA*d[5mC]*d[5mC]*eA*eT*eT*eA*eT) [compound 413524] | 7% | –
413525 (antisense eG*eT*eA*eT*eA*dA*dA*dT*dG*dT*dG*dT*d[5mC]*dA*dA*eA*eT*eT*eA*eA) [compound 413525] | 43% | –
413526 (antisense eG*eT*eA*eA*eA*dG*dT*dT*dT*dT*dA*d[5mC]*d[5mC]*dT*dT*eA*eA*e[5mC]*e[5mC]*eT) [compound 413526] | 47% | –
413527 (antisense e[5mC]*e[5mC]*eA*eT*eA*dA*dT*dG*dA*dA*dG*dA*dA*dG*dG*eA*eA*eG*eG*eG) [compound 413527] | 52% | –
413528 (antisense eT*eT*eA*eA*eG*dT*dT*dA*d[5mC]*dA*dT*dT*dG*dT*dA*eG*eA*e[5mC]*e[5mC]*eA) [compound 413528] | 48% | –
413529 (antisense eT*eG*eT*eG*eT*dG*dG*dG*dT*d[5mC]*d[5mC]*dT*dG*dA*dA*eA*eT*eT*e[5mC]*eT) [compound 413529] | 52% | –
413530 (antisense eA*eT*e[5mC]*eT*eT*dG*dT*dA*dA*dT*dT*dA*d[5mC]*dA*d[5mC]*eA*e[5mC]*e[5mC]*e[5mC]*e[5mC]) [compound 413530] | 27% | –
413531 (antisense eG*eT*eA*e[5mC]*eA*d[5mC]*dT*d[5mC]*dT*dG*d[5mC]*dA*dA*d[5mC]*dA*eG*eA*eA*eG*e[5mC]) [compound 413531] | 47% | –
413532 (antisense eA*eG*eG*eG*eA*dA*dT*dA*dA*d[5mC]*dA*dT*dG*dA*dA*eG*eG*e[5mC]*e[5mC]*e[5mC]) [compound 413532] | 32% | –
413533 (antisense eA*eT*e[5mC]*e[5mC]*eA*dG*dT*dT*d[5mC]*dA*d[5mC]*d[5mC]*dA*dT*dT*eG*eG*eA*eG*eA) [compound 413533] | 48% | –
413534 (antisense eT*eT*eT*eT*e[5mC]*d[5mC]*dA*dG*dA*dA*dG*dA*dG*dA*d[5mC]*eT*e[5mC]*eT*eT*e[5mC]) [compound 413534] | 31% | –
413535 (antisense eG*eT*e[5mC]*eA*e[5mC]*dA*dT*dT*dT*dA*dA*dA*dA*dT*dT*eT*e[5mC]*e[5mC]*eA*eA) [compound 413535] | 41% | –
413536 (antisense eT*eT*eA*eA*eT*dA*dT*dA*d[5mC]*dT*dG*d[5mC]*dA*dG*dA*eG*eA*eA*e[5mC]*e[5mC]) [compound 413536] | 37% | –
413537 (antisense eA*eG*eA*eA*eA*dT*dA*dT*d[5mC]*d[5mC]*d[5mC]*d[5mC]*dA*dG*dA*e[5mC]*eA*eG*eA*eG) [compound 413537] | 16% | –
